Reference: patent publication US12723233B2, “Media and methods for differentiating natural killer cells” (STEMCELL Technologies Canada Inc., priority 2018, dated 2026)
Entries after “also recorded” stand apart in the source; their conditions may differ.

Key:
NK cell progenitors = assay: Differentiation of cord blood CD34+-derived NK cell progenitors to CD56+ NK cells (culture days 14-28), flow cytometry and cell counts; format: cell-based, Human
Description: Human CB samples were obtained from Bloodworks NW (Seattle, WA) and CD34^+ cells were isolated using EasySep™ Human Cord Blood CD34 Positive Selection Kit II (STEMCELL Technologies, Catalogue #17896). Obtained in this way the purity of CD34^+ cells is typically higher than 90%.
The wells of a 24-well plate were coated with StemSpan™ Lymphoid Differentiation Coating Supplement (STEMCELL Technologies, Catalogue #09925) and 5000 CD34^+ cells were plated per well. The CD34^+ cells were cultured for up to 14 days in StemSpan™ SFEM II (STEMCELL Technologies, Catalogue #09605, 09655) supplemented with Lymphoid Progenitor Expansion Supplement (STEMCELL Technologies, Catalogue #09915) with media changes every 3-4 days.
After 14 days in culture, CD34^+ cell-derived NK cell progenitors were harvested. 50,000 NK cell progenitors were plated per well of an uncoated tissue culture 24-well plate. The plated NK cell progenitors were cultured for up to two weeks in NK Cell Differentiation medium (i.e StemSpan™ SFEM II (STEMCELL Technologies, Catalog # 09605, 09655) supplemented with NK Cell Differentiation Supplement (STEMCELL Technologies, Catalogue #09950), and cultured for an additional two weeks with media changes every 3-4 days. UM729 or UM171 was added to supplemented NK Cell Differentiation Medium on days 14-28. On day 28 cells were harvested for analysis or downstream applications.
Harvested cells were stained and measured by flow cytometry for expression of the NK cell lineage marker CD56. Dead cells were excluded by light scatter profile and 7-AAD or DRAQ7 staining. The results in FIGS. 1 and 2 at condition “0” (plotted on the x-axis) indicate the frequency and yield of CD56^+ NK cells that result from experiments that follows the protocol described above but in the absence of UM171 or UM729. Cell counts were obtained using the NucleoCounter NC250. Yield was calculated by dividing the resulting cell number by the number of cells initially seeded. Yields of specific cell types were obtained by multiplying total yield by cell frequency.
Cells were cultured as described in Example 1, with the exception that the up to two week culture of NK cell progenitors (i.e. culture days 14-28) in NK Cell Differentiation medium occurred in the presence or absence of UM171 or UM729.
The effects of UM171 and UM729 were tested across a range of concentrations: 0 nM, 50 nM, 100 nM, 150 nM and 200 nM for UM171; and 0 μM, 0.25 μM, 0.5 μM, 1 μM, and 2 μM for UM729.
CD34^+ CB cells were isolated and cultured as described in Example 1 up to the day 14 time point. Day 14 NK cell progenitors were further cultured in NK Cell Differentiation medium, essentially as described in Example 1, except in the absence of an added pyrimidoindole compound but in the presence or absence of 5 μM CH223191.

[1] = test system: differentiated CD56+ NK cells; assay: Flow cytometry of NK cell, maturity and T cell markers on differentiated CD56+ NK cells at day 28; format: cell-based, Human; conditions: 100 nM UM171, day 28
Description: CD56^+ NK cells were differentiated as described in Examples 1 and 2 in the presence of 1 μM UM729 and analyzed on day 28 by flow cytometry for the expression of known NK cell markers. Cells were stained with fluorescence-conjugated antibodies against indicated NK cell markers for 15 min at 4° C. Non-specific binding was blocked using FcR blocker and 5% human or rat serum. Dead cells were excluded by light scatter profile and 7-AAD or DRAQ7 staining. Prepared samples were analyzed by flow cytometry.
CD56^+ NK cells were differentiated as described in Examples 1 and 2 in the presence of 1 μM UM729 and analyzed on day 28 by flow cytometry for the expression of known NK cell markers. The cells were stained for the markers described in this Example essentially as described in Example 3. Staining for KIR molecules was performed using a combination of two clones for the antibody, 180704 and HP-MA4, as each recognizes a distinct subset of KIR molecules. Dead cells were excluded by light scatter profile and 7-AAD or DRAQ7 staining.
Production of IFNγ by the differentiated CD56^+ NK cells was also measured. For IFNγ intracellular staining, differentiated CD56^+ NK Cells were stimulated with PMA/Ionomycin for 2 hours. Brefeldin A was added and the cells were incubated for another 2 hours. The cells were harvested and stained for CD56 and Zombie NIR viability dye then fixed, permeabilized and stained for intracellular IFNγ.
CD56^+ NK cells were differentiated as described in Examples 1 and 2 in the presence of pyrimidoindole compounds and analyzed on day 28 by flow cytometry for the expression of a T cell marker. The analyzed cells were stained for CD3 essentially as described in Example 3. Dead cells were excluded by light scatter profile and 7-AAD or DRAQ7 staining.

[2] = test system: Cord blood-derived CD34+ HSPC cells; assay: UM171 added at different times of the day 0-28 NK differentiation culture, CD56 expression at day 28; format: cell-based, Human; conditions: analyzed at day 28
Description: (§1) […] CB cells were isolated and cultured as described in Example 1. As in Example 1 and 2 the different media were used in the day 0-14 and the day 14-28 cultures, except the day 0-14 culture medium was further supplemented with 100 nM UM171 to investigate its effect on the differentiation of CD4^+ HSPC to NK cells.
(§2) In these experiments UM171 was added to the cultures at different time points: days 0-14 (+/−); days 14-28 (−/+); or days 0-28 (+/+). Cultures without UM171 were also set up (−/−). Cells were either analyzed at day 28 for CD56 expression (FIG. 8) or at day 14 for CD7 and CD5 expression (FIG. 9).

CD34+ HSPC = assay: Differentiation of CD34+ HSPC into CD7+CD5+ NK cell progenitors (days 0-14), CD7 and CD5 expression at day 14; format: cell-based, Human; conditions: day 0-14 culture medium supplemented with 100 nM UM171, day 14
Description: as §1, §2

[3] = reported; cited from earlier work
[4] = 5 μM CH223191, no added pyrimidoindole compound, day 14 NK cell progenitors
[5] = 100 nM UM171, normalized to STD cultures, n=15
[6] = tested 0, 50, 100, 150, 200 nM, days 14-28
[7] = 100 nM UM171 between days 0-14 (+/−)
[8] = 100 nM UM171 between days 14-28 (−/+)

Structure (SMILES): Cc1ccccc1N=Nc1ccc(NC(=O)c2ccnn2C)c(C)c1 [CH223191]
- CD56+ NK cell frequency compared to absence of CH223191 (NK cell progenitors; [4]): decreased
- CD56+ NK cell yield compared to absence of CH223191 (NK cell progenitors; [4]): decreased

Structure (SMILES): Cn1nnc(-c2ccc3c(c2)[nH]c2nc(Cc4ccccc4)nc(N[C@H]4CC[C@H](N)CC4)c23)n1 [UM171, (1r,4r)-N^1-(2-benzyl-7-(2-methyl-2H-tetrazol-5-yl)-9H-pyrimido[4,5-13]indol-4-yl)cyclohexane-1,4-diamine]
- Frequency of CD56+ NK cells compared to cultures lacking UM171 (NK cell progenitors; 100 nM UM171, 14 days culture of NK cell progenitors, paired t-test p=0.013): increased significantly
- Increase of average frequency of NK cells compared to culture conditions not including a pyrimidoindole compound (NK cell progenitors; [5]): ~ 30%
- Increase of average yield of NK cells compared to culture conditions not including a pyrimidoindole compound (NK cell progenitors; [5]): 2 fold
- Concentration at which frequency of CD56+ NK cells appeared to be highest (NK cell progenitors; [6]): 100 nM
- Concentration at which yield of CD56+ NK cells appeared to be highest (NK cell progenitors; [6]): 100 nM
- Expression of CD3 among differentiated cells ([1]; cord blood sample of a first donor): virtually absent; also recorded: do not express CD3
- Expression of CD3 among differentiated cells ([1]; cord blood sample of a second donor): virtually absent; also recorded: do not express CD3
- CD56+ cell frequency compared to cultures lacking UM171 on days 0-14 (−/−) [2, 7]: lower
- CD56+ cell yield compared to cultures lacking UM171 on days 0-14 (−/−) [2, 7]: lower
- NK cell frequency compared to cultures lacking UM171 (−/−) [2, 8]: increase
- NK cell yield compared to cultures lacking UM171 (−/−) [2, 8]: increase
- Effect of inclusion of UM171 during days 14-28 on CD56+ NK cell frequency and yield in the (+/+) condition ([2]; 100 nM UM171 days 0-28 (+/+)): can compensate for the effects of this compound on day 0-14 cultures
- Frequency of CD7+CD5+ NK cell progenitors compared to cultures not supplemented with UM171 (CD34+ HSPC): clear reduction
- Yield of CD7+CD5+ NK cell progenitors compared to cultures not supplemented with UM171 (CD34+ HSPC): clear reduction
- Potency relative to UM729 [3]: approximately 10 ×
